Earlier results on five compounds are cited in patent publication US20030181475A1, “Method of administering buprenorphine to treat depression” (EURO-CELTIQUE S.A., priority 2002, published 2003).

The data set concerns depressed patients. The note with it: literature clinical reports.
Take `COc1ccc2c3c1O[C@H]1[C@@H](O)C=C[C@H]4[C@@H](C2)N(C)CC[C@@]341` [codeine]: the “anti-depressive / therapeutic effect in depressed patients” value (“anti-depressive / therapeutic effect” below) was “no anti-depressive effect”.
`CCC(=O)C(CC(C)N(C)C)(c1ccccc1)c1ccccc1` (centres unmarked) [methadone]: the “anti-depressive / therapeutic effect” value is “conflicting”.
With `CN1CC[C@]23c4c5ccc(O)c4O[C@H]2[C@@H](O)C=C[C@H]3[C@H]1C5` [morphine], the “anti-depressive / therapeutic effect” value is “conflicting”.
With `COc1cccc(C2(O)CCCCC2CN(C)C)c1` (centres unmarked) [tramadol], the “anti-depressive / therapeutic effect” value is given as “helped a patient with refractory major depression”.
Turning to “β-endorphin (YGGFMTSEKSQTPLVTLFKNAIIKNAYKKGE; Beta-endorphin; UniProt P01189 237-267, looked up) [an endogenous opioid]”, the “anti-depressive / therapeutic effect” value is listed as “no or little observable therapeutic effect”.
